{
  "source": "patent US11725015B2",
  "about": "“Macrocyclic compound and uses thereof” (President and Fellows of Harvard College, priority 2017, dated 2023)",
  "type_in_all_cases": "in vivo",
  "key": {"[1]": {"tested_on": "KPL-4 subcutaneous xenograft", "assay": "Antitumor effects in the KPL-4 xenograft model in mice as monotherapy", "procedure": "A human HER-2 positive breast cancer cell line KPL-4, which had been cultured in a DMEM containing 10% FBS, and penicillin-streptomycin, was adjusted to a concentration of 1×10^8 cells/mL with Hanks' Balanced Salt Solution to prepare a cell suspension. The cell suspension was inoculated in a volume of 100 μL into a subcutaneous part of a right flank of nude mice, 8 weeks of ages (CAnN.Cg-Foxnlnu/CrlCrlj, female, Charles River Laboratories Japan Inc.). Eleven days after cell inoculation (Day 1), the shortest diameter and the longest diameter of a tumor in each mouse were measured by using an electronic digital caliper (Digimatic™ caliper, Mitutoyo Corporation), so as to calculate the volume of the tumor in accordance with the following calculation formulae: Tumor volume (mm^3)=Longest diameter (mm)×Shortest diameter (mm)×Shortest diameter (mm)/2 Relative tumor volume (RTV)=Tumor volume (day X)/Tumor volume (the first day) Relative body weight (RBW)=Body weight (day X)/Body weight (the first day)\nOn the basis of the volumes of tumors obtained on Day 1, the mice were grouped such that averages of the tumor volumes were substantially equal among the groups. The experiment was conducted on groups each consisting of six mice. The test compound was dissolved in DMSO and a solution was stored in the freezer before use. Immediately before the administration, the stock solution was diluted with saline. The test compound in saline was intravenously once-weekly administered at 20 μg/kg, 60 μg/kg, or 180 μg/kg for 2 weeks (on Day 1 and Day 8)."}, "[2]": {"tested_on": "CT26 subcutaneous syngeneic model", "assay": "Antitumor activity in CT26 subcutaneous syngeneic model in combination with anti-mPD-1 antibody in mice", "procedure": "A murine undifferentiated colon carcinoma cell line CT26, which had been cultured in an RPMI-1640 medium containing 10% FBS, and penicillin and streptomycin, was adjusted to a concentration of 2×10^7 cells/mL with Hank's Balanced Salt Solution to prepare a cell suspension. On day 1, the cell suspension was inoculated in a volume of 100 μL into a subcutaneous part of a right flank of BALB/c mice, 6 weeks of ages (BALB/cAnNCrlCrlj, female, Charles River Laboratories Japan, Inc.). Two days after the cell inoculation, the mice were randomly divided into four groups and each group consists of 8 mice. The shortest diameter and the longest diameter of a tumor in each mouse were measured by using an electronic digital caliper (Digimatic™ caliper, Mitutoyo Corporation), so as to calculate the volume of the tumor in accordance with the following calculation formula: Tumor volume (mm^3)=Longest diameter (mm)×Shortest diameter (mm)×Shortest diameter (mm)/2 T/C=(mean tumor volume of treated group)/(mean tumor volume of control group) Inhibition of tumor growth (%)=(1−T/C)×100\nThe test compound was intravenously administered at 0.09 mg/kg on days 3 and 11. Anti-mPD-1 antibody (BE0146, Bio X Cell) was intravenously administered at 10 mg/kg on days 3, 7, 11, and 15."}, "[3]": {"tested_on": "CTG-2041 (human angiosarcoma) tumor fragments", "assay": "Antitumor effects in CTG-2041 soft tissue sarcoma xenograft model in mice as monotherapy", "conditions": "100 μg/kg intravenously on Day 1 and Day 8", "from_the_text": "Tumor fragments of human angiosarcoma CTG-2041 were implanted s.c. in the left flank of female mice. Tumor growth was monitored twice a week using digital caliper, so as to calculate the volume of the tumor in accordance with the following calculation formula: Tumor volume (mm^3)=Longest diameter (mm)×Shortest diameter (mm)×Shortest diameter (mm)/2 Relative tumor volume (RTV)=Tumor volume (day X)/Tumor volume (the first day)\nWhen the volume of tumors reached approximately 200 mm^3, animals are matched by tumor volume into treatment or control groups and dosing initiated on Day 1. Each group was consisted with five mice. Compound (1) was dissolved in DMSO and a solution was stored in the freezer before use. Compound (1) (100 μg/kg) diluted in saline and intravenously injected on Day 1 and Day 8."}, "[4]": {"tested_on": "OSC-19 subcutaneous xenograft", "assay": "Antitumor activity against OSC-19 subcutaneous xenograft model in mice as monotherapy", "conditions": "Q7D×2", "procedure": "A human squamous cell carcinoma of the head and neck (SCCHN) cell line OSC-19, which had been cultured in an DMEM/Ham's F-12 (1:1) medium containing 10% FBS, and penicillin and streptomycin, was adjusted to a concentration of 1×10^8 cells/ml with PBS to prepare a cell suspension, and the suspension was mixed with Matrigel™ (BD Bioscience, #366237) in a ratio of 1:1 to prepare a cell suspension in a concentration of 5×10^7 cell/mL. The cell suspension was inoculated in a volume of 100 μL into a subcutaneous part of a right flank of nude mice, 5 weeks of ages (CAnN.Cg-Foxnlnu/CrlCrlj, female, Charles River Laboratories Japan, Inc.).\nOn the basis of the volumes of tumors obtained on the first day of administration, the mice were grouped such that averages of the tumor volumes were substantially equal among the groups. The experiment was conducted on groups each consisting of 6 mice. Test compound was dissolved in saline and intravenously administered at doses from 0.06 mg/kg to 0.18 mg/kg once a week for 2 weeks (Q7D×2 schedule)."}, "[5]": {"tested_on": "MES-SA (human uterine sarcoma) xenograft", "assay": "Antitumor effects in MES-SA soft tissue sarcoma xenograft model in mice as monotherapy", "conditions": "180 μg/kg intravenously on Day 1 and Day 8", "procedure": "A human uterine sarcoma cell line MES-SA, which had been cultured in an RPMI-1640 containing 10% FBS, and penicillin-streptomycin, was adjusted to a concentration of 2×10^8 cells/mL with Hanks' Balanced Salt Solution to prepare a cell suspension, and the suspension was mixed with Geltrex® (Thermo Fisher Scientific Inc., #A1413202) in a ratio of 1:1 to prepare a cell suspension in a concentration of 1×10^8 cells/mL. The cell suspension was inoculated in a volume of 100 μL into a subcutaneous part of a right flank of nude mice, 6 weeks of ages (CAnN.Cg-Foxnlnu/CrlCrlj, female, Charles River Laboratories Japan Inc.). Six days after cell inoculation (Day 1), the shortest diameter and the longest diameter of a tumor in each mouse were measured by using an electronic digital caliper (Digimatic™ caliper, Mitutoyo Corporation), so as to calculate the volume of the tumor in accordance with the following calculation formulae: Tumor volume (mm^3)=Longest diameter (mm)×Shortest diameter (mm)×Shortest diameter (mm)/2 Relative tumor volume (RTV)=Tumor volume (day X)/Tumor volume (the first day)\nOn the basis of the volumes of tumors obtained on Day 1, the mice were grouped such that averages of the tumor volumes were substantially equal among the groups. The experiment was conducted on groups each consisting of 6 mice. […]"}},
  "data": [
    {"molecule": "C=C1C[C@@H]2CC[C@@]34C[C@H]5O[C@H]6[C@@H](O3)[C@H]3O[C@H](CC[C@@H]3O[C@H]6C5O4)CC(=O)O[C@@H]3[C@@H](C)[C@@H]4O[C@@H]5C[C@]6(C[C@@H]7O[C@]8(C[C@H](C)[C@@H]9O[C@H](CN)[C@H](O)C[C@@H]9O8)C[C@H](C)[C@@H]7O6)O[C@@H]5C[C@@H]4O[C@H]3C[C@H]3O[C@@H](CC[C@@H]1O2)C[C@@H](C)C3=C", "note": "[Compound (1)]", "values": [
      {"measurement": "antitumor effect", "setting": "[1]; 60 μg/kg intravenously on Day 1 and Day 8", "result": "tumor regression was observed"},
      {"measurement": "antitumor effect", "setting": "[1]; 180 μg/kg intravenously on Day 1 and Day 8", "result": "tumor regression was observed"},
      {"measurement": "eradication of xenograft tumors", "setting": "[1]; 180 μg/kg, on Day 15", "result": "completely eradicated the xenograft tumors in all mice"},
      {"measurement": "Inhibition of tumor growth on day 15 (%)", "setting": "[2]; 0.09 mg/kg intravenously + anti-mPD-1 antibody 10 mg/kg", "result": 62, "unit": "%"},
      {"measurement": "Inhibition of tumor growth on day 15 (%)", "setting": "[2]; 0.09 mg/kg intravenously on days 3 and 11, without antibody", "result": 30, "unit": "%"},
      {"measurement": "antitumor activity", "setting": "[3]", "result": "tumor regression"},
      {"measurement": "Tumor Regression (%)", "setting": "[4]; 0.06 mg/kg intravenously", "result": 59, "unit": "%"},
      {"measurement": "Tumor Regression (%)", "setting": "[4]; 0.18 mg/kg intravenously", "result": 90, "unit": "%"},
      {"measurement": "antitumor activity", "setting": "[5]", "result": "tumor growth delay"}
    ]}
  ]
}
